The values below come from patent US9346758B2, “Pyridinone compounds for use in photodynamic therapy” (UNIVERSITY OF EXETER, priority 2012, dated 2016).

Where “and” joins values, the source holds several entries; their conditions need not be identical. Identical values can stand only once.

In data set [1] the test system is human epithelial squamous cell carcinoma cells (A431). The experiment in a line: Cell viability (NRU assay) after irradiation with varying incubation periods (2, 3 or 4 hours). The settings on record: A431 cells, then red light 37 J/cm^2, NRU assay, individual replicates. It counts as cell-based.
Procedure: Neutral red is an inert dye actively taken up and stored by viable (living) cells, an action which is unable to be performed by non-viable cells, therefore the level of neutral red taken up is directly proportional to the number of viable cells present following a given exposure. Following uptake of the dye, cells are lysed and the level of neutral red quantified using a plate reader.
After the relevant incubation period, the cells were irradiated with red light (37 J/cm^2; 635±2 nm; Aktilite, Galderma, UK).
Data set [2] has the same test system. The experiment in a line: PpIX fluorescence accumulation.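 Also: PpIX fluorescence accumulating inside A431 cells, read under dim light to limit photobleaching.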 The settings on record: A431 cells.
Procedure: (§1) Briefly, cells were seeded at 2×10^4 cells per well in a 96 well plate and left to adhere overnight. Test solutions were prepared on the day of the assay and applied to the cells. The level of PpIX produced was monitored using a multi-well fluorescent plate reader with a 400 (±30) nm excitation filter and a 645 (±40) nm emission filter, with the level of fluorescence produced being directly proportional to the level of PpIX present. Readings were taken hourly for 6 hours and were conducted under low light conditions to reduce photobleaching of PpIX.
These were tested alongside equimolar concentrations of ALA, ALA and CP94 (3), MAL, and MAL and CP94 (3), with all test compounds being investigated in human dermal fibroblasts (84BR; FIGS. 2A and 2B), human epithelial squamous cell carcinoma cells (A431; FIGS. 3A and 3B) and human glioblastoma cells (U87MG; FIGS. 4A and 4B).
Data set [3] shares this test system. In words: PpIX fluorescence after varying incubation periods (2, 3 or 4 hours). The settings on record: for PpIX fluorescence: A431 cells, individual replicates.
Procedure: as §1
Data set [4] relates to human dermal fibroblasts (84BR). In words: PDT efficacy: cell viability (NRU assay) following irradiation. The settings on record: 84BR; added to ALA or MAL.
Procedure: To assess the effect of AP2-18 (8) on PpIX-induced PDT efficacy, the same three cell types were exposed to equimolar concentrations of ALA, ALA and CP94 (3), MAL, MAL and CP94 (3), and AP2-18 (8) (as described previously) and incubated in the dark for 4 hours. The level of PpIX accumulation was then quantified as before, prior to irradiation with red light (37 J/cm^2; 635±2 nm; Aktilite, Galderma, UK).

In the case of `NCC(=O)CCC(=O)O` [ALA, aminolevulinic acid], the cell viability in data set [1] (250 μM (each drug), incubation time 2 hours, 250 µM) is 104.2825 and 103.9063 and 123.5695 and 112.4377 and 117.6227 and 97.71 and 44.14 and 34.7079 and 50.73; in data set [1] (250 μM (each drug), incubation time 3 hours, 250 µM) it was 124.0654 and 135.6267 and 95.31 and 55.77 and 55.32 and 62.02 and 56.05 and 85.67 and 55.08 and 120.1384 and 57.18 and 77.31; in data set [1] (250 μM (each drug), incubation time 4 hours, 250 µM), 82.01 and 64.97 and 20.14 and 125.0307 and 150.1618 and 127.1037 and 6.313 and 9.566 and 15.91; in data set [1] (500 μM (each drug), incubation time 2 hours, 500 µM) it was 99.84 and 113.3557 and 112.7404 and 95.2285 and 69.94 and 82.25 and 65.56 and 62.54 and 64.53; in data set [1] (500 μM (each drug), incubation time 3 hours, 500 µM), 118.05 and 77.38 and 69.99 and 77.18 and 78.53 and 70.11 and 42.15 and 44.3852 and 60.85 and 274.4678 and 51.1 and 55.1; in data set [1] (500 μM (each drug), incubation time 4 hours, 500 µM) it was 67.69 and 28.73 and 8.056 and 111.2275 and 105.7573 and 29.3785 and 108.0828 and 59.78 and 39.7. For the same compound, the cell viability is 87.3 and 106.5283 and 118.4391 and 110.6882 and 113.0739 and 122.8714 and 119.6405 and 111.0759 and 80.15 in data set [1] (1000 μM (each drug), incubation time 2 hours, 1000 µM); 146.327 and 79.29 and 120.4428 and 43.82 and 38.85 and 34.8 and 39.79 and 27.42 and 54.75 and 57.2548 and 73.63 and 60.04 in data set [1] (1000 μM (each drug), incubation time 3 hours, 1000 µM); 59.3 and 27.29 and 6.353 and 109.5082 and 86.85 and 18.6677 and 42.58 and 43.47 and 28.34 in data set [1] (1000 μM (each drug), incubation time 4 hours, 1000 µM). In addition, the PpIX accumulation was 22.67 and 25.67 and 27.67 and 38 and 36 and 43 in data set [2] (500 μM (each component), exposure time 4 hours); 39.67 and 42.67 and 45.67 and 49.33 and 51.33 in data set [2] (500 μM (each component), exposure time 5 hours); 52.33 and 55.33 and 61.33 and 61.67 and 62.67 in data set [2] (500 μM (each component), exposure time 6 hours); 32.33 and 45.33 and 43.33 and 38.33 in data set [2] (1000 μM (each component), exposure time 4 hours); 50.67 and 63.67 and 60.67 and 51.67 and 54.67 and 57.67 in data set [2] (1000 μM (each component), exposure time 5 hours); 63 and 79 and 72 and 65 and 68 and 75 in data set [2] (1000 μM (each component), exposure time 6 hours). In addition, the PpIX fluorescence in data set [3] (500 μM (each drug), incubation time 2 hours) was −3.67 and −1.67 and −2.67 and 15.33 and 12.33 and 19.33 and 3.667 and 0.6667 and 5; in data set [3] (500 μM (each drug), incubation time 3 hours) it was 7 and 9 and 6 and 27 and 24 and 32 and 2.667 (2×) and 4.667; in data set [3] (500 μM (each drug), incubation time 4 hours), 22.67 and 25.67 and 27.67 and 38 and 36 and 43 and 5 and 4 and 6.667; in data set [3] (1000 μM (each drug), incubation time 2 hours), 1.33 and 9.33 and 14.33 and 12.33 and 15.33 and 16.33 and 8.333 and 6.333 and 9.667; in data set [3] (1000 μM (each drug), incubation time 3 hours) it was 14.33 and 25.33 and 26.33 and 27.33 and 28.33 and 32.33 and 12.33 and 10.33 and 9.333; in data set [3] (1000 μM (each drug), incubation time 4 hours), 32.33 and 45.33 (2×) and 43.33 and 38.33 (2×) and 12.33 (2×) and 12.
With `CCc1c(O)c(O)cc[n+]1CC.[Cl-]` [CP94], in data set [4], the “effect of iron chelator on PDT effect of ALA and MAL” value is “improved the PDT effect of both ALA and MAL in a concentration dependent manner”. Further, in data set [3] (A431, added to the ALA or MAL incubation period), the “effect of iron chelator on PpIX levels” value was “improved PpIX levels”.
